Patent US8344008B2 (Janssen Pharmaceutica NV, priority 2007, dated 2013)
Where a name gives a salt, the structure may show the parent alone.

Biological target: T1, recombinant human LTA4 hydrolase (rhLTA4H) (Homo sapiens, UniProt P09960)
T1 construct: made in house; host or cells: Spodoptera frugiperda (Sf-9) cells, baculovirus (pFastBac1)
T1 sequence (P09960 1-611): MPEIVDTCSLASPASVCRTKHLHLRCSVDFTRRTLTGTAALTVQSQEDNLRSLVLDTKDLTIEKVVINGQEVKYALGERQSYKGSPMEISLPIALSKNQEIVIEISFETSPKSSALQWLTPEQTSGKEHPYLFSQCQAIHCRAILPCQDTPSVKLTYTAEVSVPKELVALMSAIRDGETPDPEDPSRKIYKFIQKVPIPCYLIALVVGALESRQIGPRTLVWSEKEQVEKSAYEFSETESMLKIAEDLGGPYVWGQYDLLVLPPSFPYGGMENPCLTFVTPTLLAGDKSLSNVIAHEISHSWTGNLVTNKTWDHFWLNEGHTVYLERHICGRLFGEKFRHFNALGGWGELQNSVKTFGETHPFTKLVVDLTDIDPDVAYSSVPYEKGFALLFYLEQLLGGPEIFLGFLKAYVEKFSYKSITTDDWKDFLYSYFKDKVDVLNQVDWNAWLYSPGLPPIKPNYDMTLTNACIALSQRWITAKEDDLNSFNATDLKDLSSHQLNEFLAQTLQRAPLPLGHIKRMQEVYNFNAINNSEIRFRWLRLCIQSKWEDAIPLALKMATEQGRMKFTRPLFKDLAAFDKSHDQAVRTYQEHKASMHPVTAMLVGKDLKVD
Test: Recombinant Human LTA4 Hydrolase Assay for LTA4 Hydrolase Inhibitor Activity
Type: biochemical
Conditions: average of results obtained; LTB4 quantified by enzyme-linked immunoassay
Summary of the method: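 Baculovirus/Sf-9-expressed human LTA4 hydrolase (36 ng) preincubated with compound 10 min at rt in 0.1 M potassium phosphate pH 7.4, 5 mg/mL fatty-acid-free BSA. Reaction started with 9 ng LTA4 free acid, run 10 min at rt; LTB4 measured by enzyme immunoassay, IC50 from 4-parameter fit.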

| Ki [µM] | SMILES |
| --- | --- |
| 0.018 | O=C(Nc1ccncc1)N1CC2CN(Cc3ccc(Oc4nc5ccccc5s4)cc3)CC2C1 (stereo not shown) [Example 132, 5-[4-(Benzothiazol-2-yloxy)-benzyl]-hexahydro-pyrrolo[3,4-c]pyrrole-2-carboxylic acid pyridin-4-yl amide] |
| 0.02 | CS(=O)(=O)N1[C@@H]2CC[C@H]1C[C@H](NCCOc1ccc(Oc3nc4c(F)cccc4s3)cc1)C2 [Example 213, meso-exo-{2-[4-(4-Fluoro-benzothiazol-2-yloxy)-phenoxy]-ethyl}-(8-methanesulfonyl-8-aza-bicyclo[3.2.1]oct-3-yl)-amine] |
| 0.013 | CC(=O)N1C[C@@H]2C[C@H]1CN2CCc1ccc(Oc2nc3ccccc3s2)cc1 [Example 7, (S,S)-1-(5-{2-[4-(Benzothiazol-2-yloxy)-phenyl]-ethyl}-2,5-diaza-bicyclo[2.2.1]hept-2-yl)-ethanone] |
| 0.046 | O=C(C1CCOC1)N1CC2CN(Cc3ccc(Oc4nc5ccccc5s4)cc3)CC2C1 (stereo not shown) [Example 102, {5-[4-(Benzothiazol-2-yloxy)-benzyl]-hexahydro-pyrrolo[3,4-c]pyrrol-2-yl}-(tetrahydro-furan-3-yl)-methanone] |
| 0.009 | NC(=O)N1[C@@H]2CC[C@H]1C[C@@H](NCc1ccc(Oc3nc4c(F)cccc4s3)cc1)C2 [Example 198, meso-endo-3-[4-(4-Fluoro-benzothiazol-2-yloxy)-benzylamino]-8-aza-bicyclo[3.2.1]octane-8-carboxylic acid amide] |
| 0.088 | O=C(c1ccoc1)N1CC2CN(Cc3ccc(Oc4nc5ccccc5s4)cc3)CC2C1 (stereo not shown) [Example 110, {5-[4-(Benzothiazol-2-yloxy)-benzyl]-hexahydro-pyrrolo[3,4-c]pyrrol-2-yl}-furan-3-yl-methanone] |
| 0.003 | NC(=O)N1CC2CN(Cc3ccc(Oc4nc5ccccc5s4)cc3)CC2C1 (stereo not shown) [Example 139, 5-[4-(Benzothiazol-2-yloxy)-benzyl]-hexahydro-pyrrolo[3,4-c]pyrrole-2-carboxylic acid amide] |
| 0.196 | CS(=O)(=O)N1CC2CCC(C1)N2Cc1ccc(Oc2nc3cccc(Cl)c3s2)cc1 [Example 174, meso-7-Chloro-2-[4-(3-methanesulfonyl-3,8-diaza-bicyclo[3.2.1]oct-8-ylmethyl)-phenoxy]-benzothiazole] |
| 0.445 | Cc1ccc2nc(Oc3ccc(OCCN[C@H]4C[C@H]5CC[C@@H](C4)N5S(C)(=O)=O)cc3)sc2c1 [Example 220, meso-endo-(8-Methanesulfonyl-8-aza-bicyclo[3.2.1]oct-3-yl)-{2-[4-(6-methyl-benzothiazol-2-yloxy)-phenoxy]-ethyl}-amine] |
| 0.006 | CC(=O)N[C@@H]1C[C@H]2CC[C@@H](C1)N2Cc1ccc(Oc2nc3ccc(F)cc3s2)cc1 [Example 272, meso-exo-N-{8-[4-(6-Fluoro-benzothiazol-2-yloxy)-benzyl]-8-aza-bicyclo[3.2.1]oct-3-yl}-acetamide] |
| 0.016 | CC(=O)N[C@H]1C[C@H]2CC[C@@H](C1)N2CCOc1ccc(Oc2nc3c(F)cccc3s2)cc1 [Example 273, meso-endo-N-(8-{2-[4-(4-Fluoro-benzothiazol-2-yloxy)-phenoxy]-ethyl}-8-aza-bicyclo[3.2.1]oct-3-yl)-acetamide] |
| 0.037 | O=C(N1C[C@H]2C[C@@H]1CN2Cc1ccc(Oc2nc3ccccc3s2)cc1)C1(O)CC1 [Example 26, (R,R)-{5-[4-(Benzothiazol-2-yloxy)-benzyl]-2,5-diaza-bicyclo[2.2.1]hept-2-yl}-(1-hydroxy-cyclopropyl)-methanone] |
| 0.162 | c1ccc2sc(Oc3ccc(CN4CC5CCNC5C4)cc3)nc2c1 (stereo not shown) [Example 81, 2-[4-(Hexahydro-pyrrolo[3,4-b]pyrrol-5-ylmethyl)-phenoxy]-benzothiazole hydrochloride] |
| 0.201 | CC(C)(C)OC(=O)N1CC(C(=O)N2C[C@@H]3C[C@H]2CN3CCOc2ccc(Oc3nc4ccccc4s3)cc2)C1 [Example 67, (S,S)-3-(5-{2-[4-(Benzothiazol-2-yloxy)-phenoxy]-ethyl}-2,5-diaza-bicyclo[2.2.1]heptane-2-carbonyl)-azetidine-1-carboxylic acid tert-butyl ester] |
| 0.164 | NC(=O)N1C[C@@H]2C[C@H]1CN2Cc1cccc(Oc2nc3ccccc3s2)c1 [Example 33, (S,S)-5-[3-(Benzothiazol-2-yloxy)-benzyl]-2,5-diaza-bicyclo[2.2.1]heptane-2-carboxylic acid amide] |
| 0.397 | CS(=O)(=O)N1C[C@@H]2C[C@H]1CN2Cc1ccc(Oc2nc3ccc(F)cc3s2)cc1 [Example 230, (S,S)-6-Fluoro-2-[4-(5-methanesulfonyl-2,5-diaza-bicyclo[2.2.1]hept-2-ylmethyl)-phenoxy]-benzothiazole] |

| Ki [µM] | SMILES |
| --- | --- |
| 0.072 | NS(=O)(=O)N1CC2CN(Cc3ccc(Oc4nc5ccccc5s4)cc3)CC2C1 (stereo not shown) [Example 119, 5-[4-(Benzothiazol-2-yloxy)-benzyl]-hexahydro-pyrrolo[3,4-c]pyrrole-2-sulfonic acid amide] |
| 1.59 | CS(=O)(=O)N1C[C@@H]2C[C@H]1CN2CCOc1ccc(Oc2nc3cccc(Cl)c3s2)cc1 [Example 182, (S,S)-7-Chloro-2-{4-[2-(5-methanesulfonyl-2,5-diaza-bicyclo[2.2.1]hept-2-yl)-ethoxy]-phenoxy}-benzothiazole] |
| 0.013 | O=C(CO)N1CCC2CN(Cc3ccc(Oc4nc5ccccc5s4)cc3)CC2C1 (stereo not shown) [Example 116, 1-{2-[4-(Benzothiazol-2-yloxy)-benzyl]-octahydro-pyrrolo[3,4-c]pyridin-5-yl}-2-hydroxy-ethanone] |
| 0.008 | CS(=O)(=O)N1CC2CCC(C1)N2Cc1ccc(Oc2nc3c(F)cccc3s2)cc1 [Example 258, meso-4-Fluoro-2-[4-(3-methanesulfonyl-3,8-diaza-bicyclo[3.2.1]oct-8-ylmethyl)-phenoxy]-benzothiazole] |
| 0.965 | CS(=O)(=O)N1[C@@H]2CC[C@H]1C[C@H](NCc1ccc(Oc3nc4cc(Cl)ccc4s3)cc1)C2 [Example 185, meso-exo-[4-(5-Chloro-benzothiazol-2-yloxy)-benzyl]-(8-methanesulfonyl-8-aza-bicyclo[3.2.1]oct-3-yl)-amine] |
| 0.085 | CC(=O)N1[C@@H]2CC[C@H]1C[C@@H](NCCc1ccc(Oc3nc4cc(F)ccc4s3)cc1)C2 [Example 197, meso-endo-1-(3-{2-[4-(5-Fluoro-benzothiazol-2-yloxy)-phenyl]-ethylamino}-8-aza-bicyclo[3.2.1]oct-8-yl)-ethanone] |
| 0.062 | O=C(C1CCC1)N1CC2CN(Cc3ccc(Oc4nc5ccccc5s4)cc3)CC2C1 (stereo not shown) [Example 104, {5-[4-(Benzothiazol-2-yloxy)-benzyl]-hexahydro-pyrrolo[3,4-c]pyrrol-2-yl}-cyclobutyl-methanone] |
| 3.14 | CS(=O)(=O)N1[C@@H]2CC[C@H]1C[C@@H](NCCOc1ccc(Oc3nc4c(Cl)cccc4s3)cc1)C2 [Example 194, meso-endo-{2-[4-(4-Chloro-benzothiazol-2-yloxy)-phenoxy]-ethyl}-(8-methanesulfonyl-8-aza-bicyclo[3.2.1]oct-3-yl)-amine] |
| 0.31 | CS(=O)(=O)N[C@@H]1C[C@H]2CC[C@@H](C1)N2CCOc1ccc(Oc2nc3cc(Cl)ccc3s2)cc1 [Example 265, meso-exo-N-(8-{2-[4-(5-Chloro-benzothiazol-2-yloxy)-phenoxy]-ethyl}-8-aza-bicyclo[3.2.1]oct-3-yl)-methanesulfonamide] |
| 0.005 | NC(=O)N[C@@H]1C[C@H]2CC[C@@H](C1)N2CCOc1ccc(Oc2nc3c(F)cccc3s2)cc1 [Example 204, meso-exo-(8-{2-[4-(4-Fluoro-benzothiazol-2-yloxy)-phenoxy]-ethyl}-8-aza-bicyclo[3.2.1]oct-3-yl)-urea] |
| 0.043 | c1ccc2sc(Oc3ccc(OCCN4C[C@@H]5C[C@H]4CN5)cc3)nc2c1 [Example 9B, (S,S)-2-{4-[2-(2,5-Diaza-bicyclo[2.2.1]hept-2-yl)-ethoxy]-phenoxy}-benzothiazole trifluoroacetate] |
| 0.793 | NC(=O)N1C[C@H]2C[C@@H]1CN2Cc1ccc(Oc2nc3cccc(Cl)c3s2)cc1 [Example 196, (R,R)-5-[4-(7-Chloro-benzothiazol-2-yloxy)-benzyl]-2,5-diaza-bicyclo[2.2.1]heptane-2-carboxylic acid amide] |
| 0.101 | NC(=O)N1CC2CN(Cc3ccc(Oc4nc5ccc(F)cc5s4)cc3)CC2C1 (stereo not shown) [Example 144, 5-[4-(6-Fluoro-benzothiazol-2-yloxy)-benzyl]-hexahydro-pyrrolo[3,4-c]pyrrole-2-carboxylic acid amide] |
| 0.073 | O=C(CO)N1C[C@@H]2C[C@H]1CN2CCc1cccc(Oc2nc3ccccc3s2)c1 [Example 20, (S,S)-1-(5-{2-[3-(Benzothiazol-2-yloxy)-phenyl]-ethyl}-2,5-diaza-bicyclo[2.2.1]hept-2-yl)-2-hydroxy-ethanone] |
| 0.086 | CC(=O)N[C@@H]1C[C@H]2CC[C@@H](C1)N2CCc1ccc(Oc2nc3ccc(Cl)cc3s2)cc1 [Example 163, meso-exo-N-(8-{2-[4-(6-Chloro-benzothiazol-2-yloxy)-phenyl]-ethyl}-8-aza-bicyclo[3.2.1]oct-3-yl)-acetamide] |
